# Activity calls are given as the source filed them. No cut-off for these calls is given here.
# What was measured:
# [1] = system: Staphylococcus aureus; experiment: Inhibition of biofilm formation in Staphylococcus aureus AH133 transformed with GFP assessed as zone of inhibition at 16 mg/ml after 24 hrs by confocal laser scanning microscopy; assay type: functional; details: for zone of inhibition at 16000 µg/mL: AH133, 24 h, read-out: IZ
# [2] = system: Staphylococcus aureus; experiment: Inhibition of biofilm formation in Staphylococcus aureus AH133 transformed with GFP assessed as zone of inhibition at 10 to 20 ug/disc after 24 hrs by confocal laser scanning microscopy; assay type: functional, organism-based
# [3] = system: Staphylococcus aureus; experiment: Inhibition of biofilm formation in Staphylococcus aureus AH133 transformed with GFP assessed as zone of inhibition at 40 to 80 ug/disc after 24 hrs by confocal laser scanning microscopy; assay type: functional, organism-based
# [4] = system: Staphylococcus aureus; experiment: Inhibition of biofilm formation in Staphylococcus aureus AH133 transformed with GFP assessed as reduction in recovery of CFU at 80 ug/disc after 24 hrs by confocal laser scanning microscopy; assay type: functional, organism-based
SMILES,inhibition [1],zone of inhibition at 16000 µg/mL [1],inhibition [2],inhibition [3],inhibition [4]
CC1(C)S[C@@H]2[C@H](NC(=O)[C@H](N)c3ccccc3)C(=O)N2[C@H]1C(=O)O,Active,–,–,–,–
O=c1cc(-c2ccc(O)c(O)c2)oc2cc(O)c(O)c(O)c12 [6-HYDROXYLUTEOLIN],–,8 mm,inactive,Active,Active
COc1cc2oc(-c3ccc(O)c(O)c3)cc(=O)c2c(O)c1OC [CIRSILIOL],–,10.3 mm,inactive,Active,Active
